Source: patent US12447153B2, “HER2 mutation inhibitors” (Array BioPharma Inc., priority 2021, dated 2025)

What was measured:
[1] = biological target: ErbB2 WT (Homo sapiens (Human), UniProt P04626); experiment: ErbB Enzyme Assay (HTRF KinEASE-TK), Assay 2; assay type: biochemical
[2] = biological target: ErbB2 with Exon 20 YVMA insertion (HER2-YVMA) (Homo sapiens (Human), UniProt P04626, INS775YVMA); experiment: Cellular Phosphorylation Assay, Assay 4 (constitutive ErbB2 phosphorylation, NIH 3T3 cells); assay type: cell-based
[3] = biological target: EGFR (Homo sapiens (Human), UniProt P00533); experiment: ErbB Enzyme Assay (HTRF KinEASE-TK), Assay 3; assay type: biochemical
[4] = biological target: EGFR wild type (EGFR WT) (Homo sapiens (Human), UniProt P00533); experiment: Cellular Phosphorylation Assay, Assay 5 (EGF-stimulated EGFR phosphorylation, NIH 3T3 cells); assay type: cell-based
[5] = EGF-stimulated EGFR WT phosphorylation
[6] = cellular ErbB2 YVMA phosphorylation
[7] = cellular EGFR WT phosphorylation, EGF-stimulated

Chain of ErbB2 with Exon 20 YVMA insertion (HER2-YVMA) (P04626 other isoform, or with tags, fused parts or gaps ins YVMA behind 775): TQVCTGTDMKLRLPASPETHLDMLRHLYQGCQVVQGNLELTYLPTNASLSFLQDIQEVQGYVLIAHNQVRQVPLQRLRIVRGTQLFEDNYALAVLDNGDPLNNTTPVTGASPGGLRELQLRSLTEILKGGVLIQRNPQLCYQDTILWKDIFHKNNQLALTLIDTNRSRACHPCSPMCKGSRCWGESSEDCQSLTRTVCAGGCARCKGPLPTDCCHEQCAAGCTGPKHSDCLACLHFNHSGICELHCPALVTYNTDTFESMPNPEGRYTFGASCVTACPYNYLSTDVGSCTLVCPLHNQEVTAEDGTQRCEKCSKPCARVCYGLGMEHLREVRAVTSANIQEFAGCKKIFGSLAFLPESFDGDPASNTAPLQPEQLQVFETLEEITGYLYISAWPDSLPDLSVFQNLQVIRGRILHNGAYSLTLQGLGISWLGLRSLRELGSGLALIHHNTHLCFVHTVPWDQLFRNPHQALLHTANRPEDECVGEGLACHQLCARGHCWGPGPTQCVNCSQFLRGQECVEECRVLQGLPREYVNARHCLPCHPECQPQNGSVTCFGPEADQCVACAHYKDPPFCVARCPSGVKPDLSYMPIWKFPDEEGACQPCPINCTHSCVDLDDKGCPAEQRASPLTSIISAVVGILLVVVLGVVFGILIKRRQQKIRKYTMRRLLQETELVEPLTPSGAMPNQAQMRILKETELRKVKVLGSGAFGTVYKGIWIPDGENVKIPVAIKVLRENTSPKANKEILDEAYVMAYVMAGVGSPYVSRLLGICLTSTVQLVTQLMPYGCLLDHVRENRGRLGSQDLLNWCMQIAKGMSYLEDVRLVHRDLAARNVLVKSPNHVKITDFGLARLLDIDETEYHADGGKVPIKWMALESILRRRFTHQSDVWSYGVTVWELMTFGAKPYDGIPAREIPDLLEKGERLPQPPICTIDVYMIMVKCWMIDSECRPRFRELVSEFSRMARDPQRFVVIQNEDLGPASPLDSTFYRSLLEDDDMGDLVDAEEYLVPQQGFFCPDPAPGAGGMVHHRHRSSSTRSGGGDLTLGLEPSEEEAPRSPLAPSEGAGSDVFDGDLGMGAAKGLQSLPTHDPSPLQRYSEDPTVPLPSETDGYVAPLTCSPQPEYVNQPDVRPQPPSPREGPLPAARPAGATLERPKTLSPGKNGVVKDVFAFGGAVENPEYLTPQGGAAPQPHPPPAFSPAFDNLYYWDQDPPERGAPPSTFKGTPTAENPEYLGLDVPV
Chain of ErbB2 WT (P04626 23-1255): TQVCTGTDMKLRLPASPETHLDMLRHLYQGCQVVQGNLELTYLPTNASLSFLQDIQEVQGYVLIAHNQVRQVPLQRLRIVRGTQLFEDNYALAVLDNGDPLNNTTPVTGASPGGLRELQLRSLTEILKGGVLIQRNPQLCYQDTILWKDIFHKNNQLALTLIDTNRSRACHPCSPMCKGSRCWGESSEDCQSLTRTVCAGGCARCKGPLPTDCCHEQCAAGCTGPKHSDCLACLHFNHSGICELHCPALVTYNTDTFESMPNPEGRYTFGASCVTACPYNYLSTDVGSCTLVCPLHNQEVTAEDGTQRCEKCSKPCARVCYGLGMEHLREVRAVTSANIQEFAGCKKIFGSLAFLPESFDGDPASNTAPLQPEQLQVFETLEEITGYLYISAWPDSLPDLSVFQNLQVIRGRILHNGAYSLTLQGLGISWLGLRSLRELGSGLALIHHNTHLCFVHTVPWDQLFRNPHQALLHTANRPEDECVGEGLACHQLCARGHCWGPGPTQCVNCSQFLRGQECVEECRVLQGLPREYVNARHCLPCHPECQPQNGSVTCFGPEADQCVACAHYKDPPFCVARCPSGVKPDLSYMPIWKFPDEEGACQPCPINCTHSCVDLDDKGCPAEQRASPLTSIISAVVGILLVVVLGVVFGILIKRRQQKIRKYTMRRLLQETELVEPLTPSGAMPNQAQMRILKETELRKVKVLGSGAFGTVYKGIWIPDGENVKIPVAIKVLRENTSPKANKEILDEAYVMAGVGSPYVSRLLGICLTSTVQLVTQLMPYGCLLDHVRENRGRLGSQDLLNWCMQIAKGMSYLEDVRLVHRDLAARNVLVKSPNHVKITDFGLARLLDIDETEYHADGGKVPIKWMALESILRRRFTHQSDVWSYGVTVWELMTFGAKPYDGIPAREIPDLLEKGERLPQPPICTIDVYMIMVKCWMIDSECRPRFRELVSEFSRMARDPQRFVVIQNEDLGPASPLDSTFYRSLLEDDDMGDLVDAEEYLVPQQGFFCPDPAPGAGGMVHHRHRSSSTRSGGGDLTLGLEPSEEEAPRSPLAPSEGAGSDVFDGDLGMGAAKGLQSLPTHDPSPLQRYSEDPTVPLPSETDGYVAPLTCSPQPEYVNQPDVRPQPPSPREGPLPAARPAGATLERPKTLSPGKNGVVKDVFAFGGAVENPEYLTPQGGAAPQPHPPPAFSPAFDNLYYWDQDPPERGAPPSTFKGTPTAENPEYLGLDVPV
Chain of EGFR (P00533 25-1210): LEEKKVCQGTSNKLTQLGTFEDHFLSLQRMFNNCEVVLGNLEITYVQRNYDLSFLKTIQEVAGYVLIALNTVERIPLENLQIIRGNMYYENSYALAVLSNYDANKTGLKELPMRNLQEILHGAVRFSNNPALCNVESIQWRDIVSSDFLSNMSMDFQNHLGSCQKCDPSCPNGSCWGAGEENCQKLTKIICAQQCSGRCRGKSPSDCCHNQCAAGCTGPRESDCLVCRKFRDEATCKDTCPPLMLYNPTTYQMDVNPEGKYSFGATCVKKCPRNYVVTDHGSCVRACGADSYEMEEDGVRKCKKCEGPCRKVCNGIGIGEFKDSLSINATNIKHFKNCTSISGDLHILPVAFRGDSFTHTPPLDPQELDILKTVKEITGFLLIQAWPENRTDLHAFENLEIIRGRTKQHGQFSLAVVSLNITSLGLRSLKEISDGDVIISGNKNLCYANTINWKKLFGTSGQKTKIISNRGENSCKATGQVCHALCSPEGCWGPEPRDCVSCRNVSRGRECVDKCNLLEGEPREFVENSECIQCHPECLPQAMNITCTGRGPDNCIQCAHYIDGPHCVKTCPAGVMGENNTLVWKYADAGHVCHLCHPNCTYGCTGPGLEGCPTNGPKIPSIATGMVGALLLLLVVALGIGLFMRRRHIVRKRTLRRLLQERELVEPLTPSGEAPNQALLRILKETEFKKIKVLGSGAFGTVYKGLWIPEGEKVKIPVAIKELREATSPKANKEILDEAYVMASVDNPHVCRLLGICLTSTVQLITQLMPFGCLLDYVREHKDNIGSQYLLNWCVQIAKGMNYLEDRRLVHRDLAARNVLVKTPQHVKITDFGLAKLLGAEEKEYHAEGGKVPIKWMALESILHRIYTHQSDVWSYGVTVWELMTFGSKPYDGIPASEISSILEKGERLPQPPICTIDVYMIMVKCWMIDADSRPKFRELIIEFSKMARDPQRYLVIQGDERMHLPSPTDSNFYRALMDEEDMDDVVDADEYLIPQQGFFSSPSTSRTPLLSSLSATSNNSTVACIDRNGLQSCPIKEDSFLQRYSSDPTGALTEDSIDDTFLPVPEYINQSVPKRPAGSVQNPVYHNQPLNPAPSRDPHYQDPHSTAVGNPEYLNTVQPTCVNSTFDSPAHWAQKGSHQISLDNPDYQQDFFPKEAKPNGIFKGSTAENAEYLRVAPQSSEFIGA
Chain of EGFR wild type (EGFR WT) (P00533 25-1210): as above

Q: How did the IC50 ([1]; ErbB2 WT enzyme) turn out when `C=CC(=O)N1CC[C@@H]2C[C@H]1CN2c1ccc2ncnc(Nc3ccc(Oc4ccc5c(c4)ncn5C)c(C)c3F)c2n1` [Example 29, 1-((1 S,5R)-6-(4-((2-fluoro-3-methyl-4-((1-methyl-1H-benzo[d]imidazol-5-yl)oxy)phenyl)amino)pyrido[3,2-d]pyrimidin-6-yl)-2,6-diazabicyclo[3.2.1]octan-2-yl)prop-2-en-1-one] was run?
A: 36.5 nM

Q: What about the IC50 ([2]; ErbB2 YVMA phosphorylation) of the same molecule?
A: 5.8 nM

Q: And the IC50 ([3]; EGFR enzyme)?
A: 311 nM

Q: And the IC50 [4, 5]?
A: 118 nM

Q: How did the IC50 ([1]; ErbB2 WT enzyme) turn out when `C=CC(=O)N1CCN(c2ccc3ncnc(Nc4ccc(Oc5ccn6ncnc6c5)c(Cl)c4F)c3n2)C[C@@H]1C` [Example 90, (S)-1-(4-(4-((4-([1,2,4]triazolo[1,5-a]pyridin-7-yloxy)-3-chloro-2-fluorophenyl)amino)pyrido[3,2-d]pyrimidin-6-yl)-2-methylpiperazin-1-yl)prop-2-en-1-one] was run?
A: 13.4 nM

Q: What about the IC50 ([2]; ErbB2 YVMA phosphorylation) of the same molecule?
A: 5.9 nM

Q: What about the IC50 ([3]; EGFR enzyme) of the same molecule?
A: 519 nM

Q: What about the IC50 [4, 5] of the same molecule?
A: 575 nM

Q: Which results are given for `C=CC(=O)N1C[C@@H]2CC[C@H]1C[C@H]2c1ccc2ncnc(Nc3ccc(Oc4ccn5ncnc5c4)c(C)c3F)c2n1` (single isomer, unassigned) [Example 235]?
A: IC50 ([1]; ErbB2 WT enzyme): 31 nM; IC50 ([2]; ErbB2 YVMA phosphorylation): 92.1 nM; IC50 ([3]; EGFR enzyme): 1020 nM; IC50 [4, 5]: ≥ 5000 nM

Q: Which IC50 ([1]; ErbB2 WT enzyme) does the source give for `C=CC(=O)N1C2CC1CN(c1ccc3ncnc(Nc4cc(Cl)c(Oc5ccn6ncnc6c5)cc4F)c3n1)C2` [Example 44, 1-(3-(4-((4-([1,2,4]triazolo[1,5-a]pyridin-7-yloxy)-5-chloro-2-fluorophenyl)amino)pyrido[3,2-d]pyrimidin-6-yl)-3,6-diazabicyclo[3.1.1]heptan-6-yl)prop-2-en-1-one] here?
A: 81.5 nM

Q: And the IC50 ([2]; ErbB2 YVMA phosphorylation)?
A: 55.7 nM

Q: What about the IC50 ([3]; EGFR enzyme) of the same molecule?
A: ≥ 10000 nM

Q: What about the IC50 [4, 5] of the same molecule?
A: ≥ 5000 nM

Q: For `C=CC(=O)N1CCCC(c2ccc3ncnc(Nc4ccc(Oc5ccn6ncnc6c5)c(Cl)c4F)c3n2)CC1` (stereo not drawn) [Example 399], which IC50 ([1]; ErbB2 WT enzyme assay) is on record?
A: 1.9 nM

Q: And the IC50 [2, 6]?
A: 19 nM

Q: And the IC50 ([3]; EGFR enzyme assay)?
A: 177 nM

Q: And the IC50 [4, 7]?
A: 461 nM

Q: Which results are given for `C=CC(=O)N1CCN(c2nc3c(Nc4ccc(Oc5ccn6ncnc6c5)c(C)c4F)ncnc3cc2Cl)CC1(C)C` [Example 160, 1-(4-(4-((4-([1,2,4]triazolo[1,5-a]pyridin-7-yloxy)-2-fluoro-3-methylphenyl)amino)-7-chloropyrido[3,2-d]pyrimidin-6-yl)-2,2-dimethylpiperazin-1-yl)prop-2-en-1-one]?
A: IC50 ([1]; ErbB2 WT enzyme): 515 nM; IC50 ([2]; ErbB2 YVMA phosphorylation): 165 nM; IC50 ([3]; EGFR enzyme): ≥ 10000 nM; IC50 [4, 5]: ≥ 5000 nM

Q: What does the source list for `C=CC(=O)N1CC[C@@H]2C[C@H]1CN2c1ccc2ncnc(Nc3cc(C)c(Oc4ccc5c(c4)ncn5C)cc3F)c2n1` [Example 66, 1-((1S,5R)-6-(4-((2-fluoro-5-methyl-4-((1-methyl-1H-benzo[d]imidazol-5-yl)oxy)phenyl)amino)pyrido[3,2-d]pyrimidin-6-yl)-2,6-diazabicyclo[3.2.1]octan-2-yl)prop-2-en-1-one]?
A: IC50 ([1]; ErbB2 WT enzyme): 6.8 nM; IC50 ([2]; ErbB2 YVMA phosphorylation): 6.1 nM; IC50 ([3]; EGFR enzyme): 84.5 nM; IC50 [4, 5]: 153 nM

Q: With `C=CC(=O)N1C[C@H]2CC[C@H](c3ccc4ncnc(Nc5ccc(Oc6ccn7ncnc7c6)c(C)c5F)c4n3)[C@H]2C1` [Example 411] as the molecule, how does the IC50 ([1]; ErbB2 WT enzyme assay) read?
A: 44.9 nM

Q: And the IC50 [2, 6]?
A: 35.2 nM

Q: And the IC50 ([3]; EGFR enzyme assay)?
A: 598 nM

Q: What about the IC50 [4, 7] of the same molecule?
A: 1440 nM

Q: For `C=CC(=O)N1CCN(c2ccc3ncnc(Nc4ccc(Oc5cc(F)c6c(c5)ncn6C)c(C)c4)c3n2)C[C@@H]1C1CC1` (racemic) [Example 278], which IC50 ([1]; ErbB2 WT enzyme assay) is on record?
A: 54.6 nM

Q: What about the IC50 [2, 6] of the same molecule?
A: 18.1 nM

Q: And the IC50 ([3]; EGFR enzyme assay)?
A: 6630 nM

Q: And the IC50 [4, 7]?
A: 1820 nM

Q: What does the source list for `C=CC(=O)N1CC[C@@H]2[C@H](c3ccc4ncnc(Nc5ccc(Oc6ccc7c(c6)ncn7C)c(C)c5F)c4n3)CC[C@@H]21` (racemic) [Example 142, rac-1-((3aR,4R,6aS)-4-(4-((2-fluoro-3-methyl-4-((1-methyl-1H-benzo[d]imidazol-5-yl)oxy)phenyl)amino)pyrido[3,2-d]pyrimidin-6-yl)hexahydrocyclopenta[b]pyrrol-1(2H)-yl)prop-2-en-1-one]?
A: IC50 ([1]; ErbB2 WT enzyme): 49.9 nM; IC50 ([2]; ErbB2 YVMA phosphorylation): 79.5 nM; IC50 ([3]; EGFR enzyme): ≥ 10000 nM; IC50 [4, 5]: ≥ 5000 nM

Q: Which IC50 ([1]; ErbB2 WT enzyme) does the source give for `C=CC(=O)N1CCC(Oc2ccc3ncnc(Nc4cc(Cl)c(Oc5ccc6cn(C)nc6c5)cc4F)c3n2)CC1` [Example 4, 1-(4-((4-((5-chloro-2-fluoro-4-((2-methyl-2H-indazol-6-yl)oxy)phenyl)amino)pyrido[3,2-d]pyrimidin-6-yl)oxy)piperidin-1-yl)prop-2-en-1-one] here?
A: 876 nM

Q: And the IC50 ([2]; ErbB2 YVMA phosphorylation)?
A: 392 nM

Q: What about the IC50 ([3]; EGFR enzyme) of the same molecule?
A: ≥ 10000 nM

Q: What about the IC50 [4, 5] of the same molecule?
A: ≥ 5000 nM

Q: What does the source list for `C=CC(=O)N1CCC(Sc2ccc3ncnc(Nc4ccc(Oc5ccn6ncnc6c5)c(C)c4F)c3n2)CC1` [Example 60, 1-(4-((4-((4-([1,2,4]triazolo[1,5-a]pyridin-7-yloxy)-2-fluoro-3-methylphenyl)amino)pyrido[3,2-d]pyrimidin-6-yl)thio)piperidin-1-yl)prop-2-en-1-one]?
A: IC50 ([1]; ErbB2 WT enzyme): 54.3 nM; IC50 ([2]; ErbB2 YVMA phosphorylation): 49.4 nM; IC50 ([3]; EGFR enzyme): ≥ 10000 nM; IC50 [4, 5]: 1210 nM

Q: For `C=CC(=O)N1CCN(c2ccc3ncnc(Nc4ccc(Oc5ccn6ncnc6c5)c(C)c4F)c3n2)C[C@@H]1C(F)F` (racemic) [Example 297], which IC50 ([1]; ErbB2 WT enzyme assay) is on record?
A: 11.4 nM

Q: And the IC50 [2, 6]?
A: 12.8 nM

Q: And the IC50 ([3]; EGFR enzyme assay)?
A: 168 nM

Q: And the IC50 [4, 7]?
A: 239 nM

Q: `C=CC(=O)N1CCC(Oc2ccc3ncnc(Nc4ccc(Oc5cnn6ccnc6c5)c(C)c4F)c3n2)CC1` [Example 56, 1-(4-((4-((2-fluoro-4-(imidazo[1,2-b]pyridazin-7-yloxy)-3-methylphenyl)amino)pyrido[3,2-d]pyrimidin-6-yl)oxy)piperidin-1-yl)prop-2-en-1-one] was tested. Which IC50 ([1]; ErbB2 WT enzyme) did it give?
A: 233 nM

Q: What about the IC50 ([2]; ErbB2 YVMA phosphorylation) of the same molecule?
A: 19.7 nM

Q: What about the IC50 ([3]; EGFR enzyme) of the same molecule?
A: 1440 nM

Q: What about the IC50 [4, 5] of the same molecule?
A: 374 nM

Q: `C=CC(=O)N1CCC(Oc2nc3c(Nc4ccc(Oc5ccc6cn(C)nc6c5)c(C)c4F)ncnc3cc2OC)CC1` [Example 151, 1-(4-((4-((2-fluoro-3-methyl-4-((2-methyl-2H-indazol-6-yl)oxy)phenyl)amino)-7-methoxypyrido[3,2-d]pyrimidin-6-yl)oxy)piperidin-1-yl)prop-2-en-1-one] was tested. Which IC50 ([1]; ErbB2 WT enzyme) did it give?
A: 41.6 nM

Q: And the IC50 ([2]; ErbB2 YVMA phosphorylation)?
A: 28.1 nM

Q: What about the IC50 ([3]; EGFR enzyme) of the same molecule?
A: 126 nM

Q: And the IC50 [4, 5]?
A: 548 nM

Q: How did the IC50 ([1]; ErbB2 WT enzyme) turn out when `C=CC(=O)N1C2CCC1CC(c1ccc3ncnc(Nc4ccc(Oc5ccc6c(c5)ncn6C)c(C)c4)c3n1)C2` (stereo not drawn) [Example 122, 1-(3-(4-((3-methyl-4-((1-methyl-1H-benzo[d]imidazol-5-yl)oxy)phenyl)amino)pyrido[3,2-d]pyrimidin-6-yl)-8-azabicyclo[3.2.1]octan-8-yl)prop-2-en-1-one] was run?
A: 9.3 nM

Q: And the IC50 ([2]; ErbB2 YVMA phosphorylation)?
A: 13 nM

Q: What about the IC50 ([3]; EGFR enzyme) of the same molecule?
A: 3880 nM

Q: And the IC50 [4, 5]?
A: ≥ 5000 nM

Q: `C=CC(=O)N1CCCN(c2ccc3ncnc(Nc4ccc(Oc5ccn6ncnc6c5)c(Cl)c4)c3n2)CC1` [Example 99, 1-(4-(4-((4-([1,2,4]triazolo[1,5-a]pyridin-7-yloxy)-3-chlorophenyl)amino)pyrido[3,2-d]pyrimidin-6-yl)-1,4-diazepan-1-yl)prop-2-en-1-one] was tested. Which IC50 ([1]; ErbB2 WT enzyme) did it give?
A: 19 nM

Q: What about the IC50 ([2]; ErbB2 YVMA phosphorylation) of the same molecule?
A: 35.2 nM

Q: And the IC50 ([3]; EGFR enzyme)?
A: 5840 nM

Q: And the IC50 [4, 5]?
A: ≥ 5000 nM

Q: Which results are given for `C=CC(=O)N1CC[C@@H]2[C@H](c3ccc4ncnc(Nc5cc(C)c(Oc6ccc7c(c6)ncn7C)cc5F)c4n3)CC[C@@H]21` (racemic) [Example 134, rac-1-((3aR,4R,6aS)-4-(4-((2-fluoro-5-methyl-4-((1-methyl-1H-benzo[d]imidazol-5-yl)oxy)phenyl)amino)pyrido[3,2-d]pyrimidin-6-yl)hexahydrocyclopenta[b]pyrrol-1(2H)-yl)prop-2-en-1-one]?
A: IC50 ([1]; ErbB2 WT enzyme): 86.3 nM; IC50 ([2]; ErbB2 YVMA phosphorylation): 222 nM; IC50 ([3]; EGFR enzyme): ≥ 10000 nM; IC50 [4, 5]: ≥ 5000 nM
